Reference: US20190022225A1, “PROTOCOL FOR INCREASING LIFE EXPECTANCY IN A TEST SUBJECT” (Mayo Foundation for Medical Education and Research, priority 2015, published 2019)
Entries after “also recorded” stand apart in the source; their conditions may differ.

What was measured:
[1] = tested on: 3MR or INK-ATTAC mice exposed to cigarette smoke; experiment: Cigarette smoke exposure model (COPD), oxygen saturation; format: in vivo, mouse; conditions: after 2 months of cigarette smoke exposure
Procedure: Six week-old 3MR (n=35) or INK-ATTAC (n=35) mice were chronically exposed to cigarette smoke generated from a Teague TE-10 system, an automatically-controlled cigarette smoking machine that produces a combination of side-stream and mainstream cigarette smoke in a chamber, which is transported to a collecting and mixing chamber where varying amounts of air is mixed with the smoke mixture. […] Mice received a total of 6 hours of cigarette smoke exposure per day, 5 days a week for 6 months. Each lighted cigarette (3R4F research cigarettes containing 10.9 mg of total particulate matter (TPM), 9.4 mg of tar, and 0.726 mg of nicotine, and 11.9 mg carbon monoxide per cigarette [University of Kentucky, Lexington, Ky.]) was puffed for 2 seconds and once every minute for a total of 8 puffs, with the flow rate of 1.05 L/min, to provide a standard puff of 35 cm^3. The smoke machine was adjusted to produce a mixture of side stream smoke (89%) and mainstream smoke (11%) by smoldering 2 cigarettes at one time. The smoke chamber atmosphere was monitored for total suspended particulates (80-120 mg/m^3) and carbon monoxide (350 ppm). Beginning at day 7, (10) INK-ATTAC and (10) 3MR mice were treated with AP20187 (3×per week) or gancyclovir (5 consecutive days of treatment followed by 16 days off drug, repeated until the end of the experiment), respectively. An equal number of mice received the corresponding vehicle. The remaining 30 mice (15 INK-ATTAC and 15 3MR) were evenly split with 5 of each genetically modified strain placed into three different treatment groups. One group (n=10) received Nutlin-3A (25 mg/kg dissolved in 10% DMSO/3% Tween-20 in PBS, treated 14 days consecutively followed by 14 days off drug, repeated until the end of the experiment). One group (n=10) received ABT-263 (Navitoclax) (100 mg/kg dissolved in 15% DMSO/5% Tween-20, treated 7 days consecutively followed by 14 days off drug, repeated until the end of the experiment), and the last group (n=10) received only the vehicle used for ABT-263 (15% DMSO/5% Tween-20), following the same treatment regimen as ABT-263.
After two months of cigarette smoke exposure, lung function was assessed by monitoring oxygen saturation using the MouseSTAT PhysioSuite pulse oximeter (Kent Scientific). Animals were anesthetized with isoflurane (1.5%) and the toe clip was applied. Mice were monitored for 30 seconds and the average peripheral capillary oxygen saturation (SpO2) measurement over this duration was calculated.

[2] = tested on: senescent cells in osteoarthritic joint of mice after ACL surgery; experiment: Osteoarthritis mouse model (ACL surgery), intra-articular treatment; format: in vivo; conditions: for histopathology: destruction of the proteoglycan layer: Nutlin-3A in C57BL/6J, GCV 2.5 μg intra-articular in 3MR mice
Procedure: Parallel studies were performed. One study investigated the effect of eliminating senescent cells with ganciclovir (GCV) in 3MR mice. Mice underwent surgery to cut the anterior cruciate ligament of one rear limb to induce osteoarthritis in the joint of that limb. During week 2 post-surgery, 3MR mice received 2.5 μg GCV to the operated knee by intra-articular injection, qd for 5 days, with a 2nd treatment (2.5 μg GCV qd for 5 days) during week 4 post-surgery. At the end of 4 weeks post-surgery, operated joints of the mice were monitored for presence of senescent cells, assessed for function, monitored for markers of inflammation, and underwent histological assessment.
In a parallel study, C57BL/6J mice underwent surgery to cut the anterior cruciate ligament of one rear limb to induce osteoarthritis in the joint of that limb. During week 3 and week 4 post-surgery, the mice were treated with 5.8 μg of Nutlin-3A (n=7) per operated knee by intra-articular injection, qod for 2 weeks. At the end of 4 weeks post-surgery, joints of the mice were monitored for presence of senescent cells, assessed for function, monitored for markers of inflammation, and underwent histological assessment.
Two control groups of mice were included in the studies performed: one group comprising C57BL/6J or 3MR mice that had undergone a sham surgery (n=3) (i.e., surgical procedures followed except for cutting the ACL) and intra-articular injections of vehicle parallel to the GCV-treated group; and one group comprising C57BL/6J or 3MR mice that had undergone an ACL surgery and received intra-articular injections of vehicle (n=5) parallel to the GCV-treated group.
RNA from the operated joints of mice from the Nutlin-3A treated mice was analyzed for expression of SASP factors (mmp3, IL-6) and senescence markers (p16). qRT-PCR was performed to detect mRNA levels. […] RNA from the operated joints of mice was also analyzed for expression of type 2 collagen and compared with expression of actin as a control.
Function of the limbs was assessed 4 weeks post-surgery by a weight bearing test to determine which leg the mice favored (FIG. 39). The mice were allowed to acclimate to the chamber on at least 3 occasions prior to taking measurements. Mice were maneuvered inside the chamber to stand with 1 hind paw on each scale. The weight that was placed on each hind limb was measured over a 3-second period. At least 3 separate measurements were made for each animal at each time point. The results were expressed as the percentage of the weight placed on the operated limb versus the contralateral unoperated limb.
The function of the limbs was also assessed at 4 weeks post-surgery by hotplate analysis to show sensitivity and reaction to pain stimulus. In brief, a mouse was placed on a hotplate at 55° C. When placed on the hot surface of the plate, mice will lift their paws and lick them (paw-lick response) due to attainment of pain threshold. The latency period for the hind limb response (paw-lick response) is recorded as response time.
Histopathology of osteoarthritis induced by ACL surgery illustrated that the proteoglycan layer was destroyed.

Compound | SpO2 levels versus untreated controls [1] | senescent cells in the joint (p16, IL-6, MMP13 mRNA) ([2]; 5.8 μg per operated knee intra-articular qod for 2 weeks, 4 weeks post-surgery) | weight bearing test (favoring the unoperated hind limb) ([2]; 4 weeks post-surgery) | hotplate paw-lick response time ([2]; 55° C., 4 weeks post-surgery) | histopathology: destruction of the proteoglycan layer [2] | type 2 collagen expression in operated joints ([2]; relative to actin, versus untreated OA surgery mice)
COc1ccc(C2=N[C@@H](c3ccc(Cl)cc3)[C@@H](c3ccc(Cl)cc3)N2C(=O)N2CCNC(=O)C2)c(OC(C)C)c1 [Nutlin-3a] | statistically significant increases | clears senescent cells from the joint | abrogates this effect | decreases the response time in a significant manner; also recorded: reduces response time | completely abrogated this effect | drives ab initio collagen production
Nc1nc(O)c2ncn(COC(CO)CO)c2n1 [ganciclovir] | statistically significant increases | – | – | – | same impact on pathophysiology of osteoarthritis as Nutlin-3A | –
